Results published in patent US6534498B1, “Protease inhibitors” (SmithKline Beecham Corporation, priority 1999, dated 2003).

Tests used:
[1] = system: osteoclasts (osteoclastoma-derived cell suspensions); assay: Human osteoclast resorption assay (pit assay on dentine slices); type: cell-based; conditions: 48 hours, pit volumes
Method: Human Osteoclast Resorption Assay
Aliquots of osteoclastoma-derived cell suspensions were removed from liquid nitrogen storage, warmed rapidly at 37° C. and washed ×1 in RPMI-1640 medium by centrifugation (1000 rpm, 5 min at 4° C.). The medium was aspirated and replaced with murine anti-HLA-DR antibody, diluted 1:3 in RPMI-1640 medium, and incubated for 30 minutes on ice. The cell suspension was mixed frequently.
The cells were washed ×2 with cold RPMI-1640 by centrifugation (1000 rpm, 5 min at 4° C.) and then transferred to a sterile 15 mL centrifuge tube. The number of mononuclear cells were enumerated in an improved Neubauer counting chamber.
Sufficient magnetic beads (5/mononuclear cell), coated with goat anti-mouse IgG, were removed from their stock bottle and placed into 5 mL of fresh medium (this washes away the toxic azide preservative). The medium was removed by immobilizing the beads on a magnet and is replaced with fresh medium.
The beads were mixed with the cells and the suspension was incubated for 30 minutes on ice. The suspension was mixed frequently. […]
The TRAP positive osteoclasts were enumerated by bright-field microscopy and were then removed from the surface of the dentine by sonication. Pit volumes were determined using the Nikon/Lasertec ILM21W confocal microscope.

[2] = target: T1, cathepsin K (Homo sapiens, UniProt P43235); assay: Determination of cathepsin K proteolytic catalytic activity / inhibition studies (progress curve method, Cbz-Phe-Arg-AMC); type: biochemical; conditions: human recombinant enzyme, 100 mM Na acetate pH 5.5, 20 μM substrate, 10% DMSO
T1 sequence (P43235 115-329): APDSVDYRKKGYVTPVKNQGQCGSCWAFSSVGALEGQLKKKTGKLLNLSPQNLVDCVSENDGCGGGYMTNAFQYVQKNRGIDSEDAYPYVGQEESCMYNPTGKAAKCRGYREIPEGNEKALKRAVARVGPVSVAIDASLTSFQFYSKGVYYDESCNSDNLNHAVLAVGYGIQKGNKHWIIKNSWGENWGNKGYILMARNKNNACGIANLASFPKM
Method: Determination of Cathepsin K Proteolytic Catalytic Activity
All assays for cathepsin K were carried out with human recombinant enzyme. Standard assay conditions for the determination of kinetic constants used a fluorogenic peptide substrate, typically Cbz-Phe-Arg-AMC, and were determined in 100 mM Na acetate at pH 5.5 containing 20 mM cysteine and 5 mM EDTA. Stock substrate solutions were prepared at concentrations of 10 or 20 mM in DMSO with 20 μM final substrate concentration in the assays. All assays contained 10% DMSO. […] All assays were conducted at ambient temperature. Product fluorescence (excitation at 360 nm; emission at 460 nm) was monitored with a Perceptive Biosystems Cytofluor II fluorescent plate reader. […]
Potential inhibitors were evaluated using the progress curve method. […] For those compounds whose progress curves were linear, apparent inhibition constants (Ki,app) were calculated according to equation 1 (Brandt et al., Biochemitsry, 1989, 28, 140): […]
[AMC]=vsst+(v0−vss)[[…]]/kobs (2) where [AMC] is the concentration of product formed over time t, v0 is the initial reaction velocity, and vss is the final steady state rate. Values for kobs were then analyzed as a linear function of inhibitor concentration to generate an apparent second order rate constant (kobs/inhibitor concentration or kobs/[I]) describing the time-dependent inhibition. […]

- IC50 [1]: 300 nM
- Ki [2]: 0.41 nM
Compound: CC(C)C[C@H](NC(=O)c1ccc2ccccc2n1)C(=O)NC1CCCN(S(=O)(=O)c2cccc[n+]2[O-])CC1=O (stereo partly drawn) [Example 1, Quinoline-2-carboxylic acid {(S)-3-methyl-1-[3-oxo-1-(1-oxy-pyridine-2-sulfonyl)-azepan-4-ylcarbamoyl]-butyl}amide]
